# Assay results as given in US8158577B2, “Modulation of cartilage homeostasis by active domains of cell binding extracellular matrix molecules” (priority 2004, dated 2012).
# Tests used:
# [1] = test system: K105 cells; assay: Effect on K105 cells already adherent to chondroadherin, light microscopy time study (FIG. 7, 9, 10); format: cell-based, human; settings: peptide 250 μg/ml added after 30 min adhesion; light microscopy after 1, 3 and 20 hours
# Procedure: (§1) To test cell binding, the chondrosarcoma cells or bovine chondrocytes were suspended in PBS containing 0.1% BSA, 25 U/ml collagenase and added to the wells (50,000/well), in the absence or presence of various peptide pools or the synthetic peptides (200, 100, 50, 25, 12.5 μg/ml). Non-adherent cells were removed after 1 hour and adhesion was determined by measuring lysosomal N-acetylglucosaminidase (12). Adhesion and spreading was visualized by light microscopy. In the time studies, k105 cells were allowed to adhere for 30 minutes, unbound cells were removed and medium without serum supplemented with or without peptides (250 μg/ml), β1 integrin antibody (clone P4C10, Gibco BRL), EDTA (5 mM) was added. Cell morphology was visualized by light microscopy after 1, 3 and 20 hours.
# (§2) Tissue culture dishes were coated with 5 μg/ml chondroadherin expressed in E. coli and blocked for non-specific binding with BSA. The k105 cells were suspended in PBS containing 0.1% BSA, and added to the wells (50,000/well). Nonadherent cells were removed after 30 min by washing, plain medium without serum with or without peptides (250 μg/ml) was added and bound cells were visualized by light microscopy after 1, 3 and 20 hours.
# as §2, with “The” for “The k105”, “hours. […] The activity for integrin binding is located in the C-terminal eight residues of the sequence involving the WLEAK (SEQ ID No. 1) sequence.” for “hours.”
# as §2, with “washing, peptide, anti β1 antibody, 5 mM EDTA or” for “washing,”, “serum” for “serum with or without peptides (250 μg/ml)”, “1 and” for “1,”, “3” for “3 and 20”
# [2] = test system: K105 cells; assay: Adhesion of K105 cells to chondroadherin in the presence of synthetic peptide (FIG. 3, 5A-5B, 13); format: cell-based, human; settings: peptide 250 μg/ml
# Procedure: Human cells (K9) originating from a human chondrosarcoma were a kind gift from Drs. Sven Inerot and Anders Lindahl, The Salgrenska University Hospital Gothenburg, Sweden. The K9 cells were cultured in Dulbeccos Modified Eagle Medium: Nutrient Mixture F12 (DMEM/F12 1:1) with GLUTAMAX I, supplemented with 10% fetal calf serum, 25 μg/ml ascorbic acid, 50 IU of penicillin and 50 μg/ml streptomycin (Life Technologies, Inc.). A different human cells line (K105) originating from a human chondrosarcoma was a kind gift from Dr. Sven Inerot, The Salgrenska University Hospital, Gothenburg, Sweden. The K105 cells were cultured in a mix of 40% Dulbeccos Modified Eagle Medium, 40% Minimum Essential Media (MEM) alpha Medium, 10% Nutrient Mixture F1 supplemented with 100 nM hydrocortisone, 100 ng/ml insulin, 10% fetal calf serum, 25 μg/ml ascorbic acid, 50 IU of penicillin and 50 μg/ml streptomycin (Life Technologies, Inc.). To harvest cells, culture dishes were rinsed three times with Ca^2+/Mg^2+-free PBS and the cells were incubated with 0.5% trypsin and 1 mM EDTA for 5 min. Detached cells were suspended in PBS containing 1 mg/ml trypsin inhibitor (Sigma) and then washed in PBS. To remove membrane-bound collagens the cells were treated with collagenase 100 U/ml (CLSPA; Worthington Biochemical Corp., Lakewood, N.J.) in PBS, 30 min. 37° C. and then washed in PBS.
# Tissue culture 48-wells dishes (Nunclon, Nunc, Denmark) were coated overnight with 5 μg/ml chondroadherin in 4M Guanidine-HCl, 50 mM sodium acetate, pH 5.8, or for native protein in PBS. Alternatively coating was with 5 μg/ml collagen type II in PBS followed by after-coating with 0.5% BSA in PBS for 3 hours. Collagen type II was isolated from bovine nasal cartilage by pepsin digestion (11). Bacterially expressed chondroadherin was isolated as described above. Recombinant chondroadherin expressed in EBNA cell was cloned and purified as described elsewhere (8).
# as §1
# Study design: Tissue culture dishes (48-wells) were coated with 5 μg/ml chondroadherin expressed in E. coli and blocked for non-specific binding with BSA. […] were suspended in PBS containing 0.1% BSA, 25 U/ml collagenase and added to the wells (50,000/well) in the presence of synthetic peptide to be tested and allowed to adhere for 1 hour at 37° C. Nonadherent cells were removed by washing, and adhesion was determined by analyzing lysosomal hexosaminidase.
# A 12-mer peptide (1947.01) plus an N-terminal cysteine (CQLRGLRRWLEAK) (SEQ ID NO. 3) representing the candidate sequence identified by mass spectrometry were synthesized and its ability to inhibit cell adhesion was determined. Tissue culture dishes were coated with 5 μg/ml chondroadherin expressed in E. coli and blocked for non-specific binding with BSA. The cells were suspended in PBS containing 0.1% BSA, 25 U/ml collagenase and added to the wells (50,000/well) in the presence of synthetic peptide (200, 100, 50, 25, 12.5 μg/ml) and allowed to adhere for 1 hour at 37° C. Nonadherent cells were removed by washing, and adhesion was determined by analyzing lysosomal hexosaminidase. […]
# [3] = test system: bovine chondrocytes; assay: Adhesion of bovine chondrocytes to human chondroadherin with or without cell binding peptides (FIG. 6); format: cell-based; settings: peptide 250 μg/ml, 1 hour at 37° C., 100,000 cells/well
# Procedure: Bovine chondrocytes were isolated by collagenase (CLS1; Worthington Biochemical Corp., Lakewood, N.J.) digestion of articular cartilage from 4-6 month old calves as described (10). Briefly, cartilage slices were digested for 16 hours with collagenase in EBSS (Earle's balanced salt solution, GIBCO BRL Gaithersburg, Md.). The cells were filtered through a 100 μm nylon filter, washed three times in PBS containing 0.2% BSA (SERVA).
# To test cell binding, the chondrosarcoma cells or bovine chondrocytes were suspended in PBS containing 0.1% BSA, 25 U/ml collagenase and added to the wells (50,000/well), in the absence or presence of various peptide pools or the synthetic peptides (200, 100, 50, 25, 12.5 μg/ml). Non-adherent cells were removed after 1 hour and adhesion was determined by measuring lysosomal N-acetylglucosaminidase (12). Adhesion and spreading was visualized by light microscopy. […]
# Tissue culture dishes were coated with 5 μg/ml chondroadherin expressed in E. coli or collagen type II and blocked for non-specific binding with BSA. […] Adhesion was determined by analyzing lysosomal hexosaminidase. Adhesion is expressed as number of cells, 100,000 cells/well was seeded. […]
substance,measurement,setting,value
H-CKFPTKRSKKAGRH-OH [SEQ ID No. 7],"spreading, migration and aggregation of k105 cells adherent to chondroadherin",[1],spreading and migration increased
same,k105 cell adhesion to chondroadherin in the presence of peptide,[2]; 1 hour at 37° C.,increased
same,k105 cell spreading on chondroadherin in the presence of peptide,"[2]; 1 hour, light microscopy",increased
same,bovine chondrocyte adhesion to chondroadherin in the presence of peptide,[3],increased
